Laboratory results from patent publication US20250144067A1, “PERSONALIZED STARVATION THERAPY FOR CANCER” (Faeth Therapeutics, Inc., priority 2021, published 2025).
Structures can show the parent of a compound that is named as a salt.

Assays:
[1] = test system: NCI-H292 lung cancer cells; assay: FDA drug screening, complete media vs cholesterol-free media with simvastatin (TABLE 2); type: cell-based, human; conditions: for Cholesterol-free media + simvastatin (0.04 μM) / Complete Media: NCI-H292 cells
[2] = test system: NCI-H292 lung cancer cells; assay: FDA drug screening, complete media vs cholesterol-free media without statin (TABLE 1); type: cell-based, human
[3] = cholesterol-free media with simvastatin 0.04 μM, cell growth value in FDA drug screen
[4] = complete media, cell growth value in FDA drug screen
[5] = complete media minus cholesterol-free media + simvastatin, >0 enhanced anti-cancer activity, about 0 neutral, <0 antagonist
[6] = Complete minus Cholesterol-free, greater than 0 enhanced anti-cancer activity, about 0 neutral, below 0 antagonist
[7] = NCI-H292 cells, FDA drug library screen, cholesterol-free media without statin
[8] = NCI-H292 cells, FDA drug library screen, complete media
[9] = FDA drug library screen, cholesterol-free media with simvastatin 0.04 μM
[10] = FDA drug library screen, complete media
[11] = Complete minus Cholesterol-free, >0 enhanced anti-cancer activity, about 0 neutral, <0 antagonist
[12] = NCI-H292 cells, cholesterol-free media without statin
[13] = cholesterol-free media with simvastatin 0.04 μM, FDA drug library screen (TABLE 2)
[14] = complete media, FDA drug library screen (TABLE 2)
[15] = complete media minus cholesterol-free media + simvastatin (0.04 μM), >0 enhanced anti-cancer activity, about 0 neutral, <0 antagonist
[16] = NCI-H292 cells, cholesterol-free media without statin, FDA drug library screen
[17] = NCI-H292 cells, complete media, FDA drug library screen
[18] = complete vs cholesterol-free media, >0 enhanced anti-cancer activity, about 0 neutral, <0 antagonist
[19] = complete vs cholesterol-free media, greater than 0 enhanced anti-cancer activity, about 0 neutral, below 0 antagonists
[20] = complete media vs cholesterol-free media + simvastatin (0.04 μM), >0 enhanced anti-cancer activity, about 0 neutral, <0 antagonist
[21] = Complete minus Cholesterol-free, greater than 0 enhanced anti-cancer activity, about 0 neutral, below 0 antagonists
[22] = NCI-H292 cells in cholesterol-free media without statin
[23] = NCI-H292 cells in complete media
[24] = Complete minus Cholesterol-free, […]
[25] = complete media minus cholesterol-free media + simvastatin, […]

O=C(O)CSc1nnc(Br)n1-c1ccc(C2CC2)c2ccccc12 [Lesinurad]
Cholesterol-free media + simvastatin (0.04 μM) [1, 3]: 0.9083
Complete Media [1, 4]: 0.9388
Difference [1, 5]: 0.03
Difference [2, 6]: −0.12
Cholesterol-free [2, 7]: 1.092
Complete [2, 8]: 0.9716

Oc1c(I)cc(I)c2cccnc12 [Diiodohydroxyquinoline]
Cholesterol-free media + simvastatin (0.04 μM) [1, 9]: 0.94
Complete Media [1, 10]: 1.35
Difference [1, 5]: 0.41
Difference [2, 11]: −0.27
Cholesterol-free [2, 12]: 1.098
Complete ([2]; NCI-H292 cells, complete media): 0.8284

O=C(O)Cc1ccc(-c2ccccc2)cc1 [Felbinac]
Cholesterol-free media + simvastatin (0.04 μM) [1, 13]: 1.215
Complete Media [1, 14]: 1.199
Difference [1, 15]: −0.02
Cholesterol-free [2, 16]: 0.7335
Complete [2, 17]: 1.335
Difference [2, 18]: 0.60

O=C(O)CCNC(=O)c1ccc(/N=N/c2ccc(O)c(C(=O)O)c2)cc1 [Balsalazide]
Cholesterol-free media + simvastatin (0.04 μM) [1, 3]: 1.228
Complete Media [1, 4]: 1.264
Difference [1, 5]: 0.04
Cholesterol-free [2, 12]: 1.245
Complete ([2]; NCI-H292 cells, complete media): 0.9198
Difference [2, 19]: −0.33

CCc1ccc(C(=O)C(C)CN2CCCCC2)cc1 (stereo not shown) [Eperisone (Hydrochloride)]
Cholesterol-free media + simvastatin (0.04 μM) [1, 9]: 1.323
Complete Media [1, 10]: 1.222
Difference [1, 20]: −0.10
Difference [2, 6]: −0.09
Cholesterol-free [2, 7]: 0.978
Complete [2, 8]: 0.8889

CC(C)COc1ccc(CNC(=O)N(Cc2ccc(F)cc2)C2CCN(C)CC2)cc1 [Pimavanserin]
Cholesterol-free media + simvastatin (0.04 μM) [1, 9]: 0.8784
Complete Media [1, 10]: 1.133
Difference [1, 5]: 0.25
Cholesterol-free [2, 16]: 0.9868
Complete [2, 17]: 1.126
Difference [2, 18]: 0.14

[H]/N=C(\N/C(=N/[H])NCCCCCCNC(=N)NC(=N)Nc1ccc(Cl)cc1)Nc1ccc(Cl)cc1 [Chlorhexidine]
Cholesterol-free media + simvastatin (0.04 μM) [1, 13]: 0.6176
Complete Media [1, 14]: 0.5919
Difference [1, 15]: −0.03
Difference [2, 11]: 0.04
Cholesterol-free [2, 16]: 0.0819
Complete [2, 17]: 0.1259

OC[C@@H](O)CN1CCN(c2ccccc2)CC1 [Levodropropizine]
Cholesterol-free media + simvastatin (0.04 μM) [1, 9]: 1.096
Complete Media [1, 10]: 0.9475
Difference [1, 20]: −0.15
Difference [2, 6]: −0.15
Cholesterol-free [2, 7]: 0.946
Complete [2, 8]: 0.7999

CCCNC(=O)NS(=O)(=O)c1ccc(Cl)cc1 [Chlorpropamide]
Cholesterol-free media + simvastatin (0.04 μM) ([1]; drug in cholesterol-free media with simvastatin 0.04 μM): 1.114
Complete Media ([1]; drug in complete media): 0.9308
Difference [1, 20]: −0.18
Difference [2, 21]: −0.51
Cholesterol-free [2, 22]: 1.49
Complete [2, 23]: 0.9801

CC(C)[C@]12O[C@H]1[C@@H]1O[C@]13[C@]1(O[C@H]1C[C@H]1C4=C(CC[C@@]13C)C(=O)OC4)[C@@H]2O [Triptolide]
Cholesterol-free media + simvastatin (0.04 μM) [1, 13]: 0.007136
Complete Media [1, 14]: −0.02177
Difference ([1]; complete media minus cholesterol-free media + simvastatin (0.04 μM), […]): −0.03
Difference [2, 24]: −0.01
Cholesterol-free [2, 16]: 0.04113
Complete [2, 17]: 0.03049

O=C1CCCC(=O)C1C(=O)c1ccc(C(F)(F)F)cc1[N+](=O)[O-] [Nitisinone]
Cholesterol-free media + simvastatin (0.04 μM) [1, 9]: 0.9427
Complete Media [1, 10]: 1.188
Difference [1, 5]: 0.25
Difference [2, 6]: −0.08
Cholesterol-free [2, 7]: 0.8746
Complete [2, 8]: 0.7963

O=C(CCCN1CC=C(n2c(=O)[nH]c3ccccc32)CC1)c1ccc(F)cc1 [Droperidol]
Cholesterol-free media + simvastatin (0.04 μM) ([1]; FDA library drug in cholesterol-free media with simvastatin 0.04 μM): 1.065
Complete Media ([1]; FDA library drug in complete media): 0.7994
Difference [1, 20]: −0.27
Difference [2, 11]: −0.22
Cholesterol-free [2, 12]: 1.218
Complete ([2]; NCI-H292 cells, complete media): 1.002

C[N+](C)(C)NCCC(=O)[O-] [Mildronate]
Cholesterol-free media + simvastatin (0.04 μM) [1, 13]: 0.9839
Complete Media [1, 14]: 0.9927
Difference [1, 15]: 0.01
Difference [2, 6]: −0.08
Cholesterol-free [2, 7]: 0.9949
Complete [2, 8]: 0.9146

CC(C)n1c(/C=C/C(O)CC(O)CC(=O)O)c(-c2ccc(F)cc2)c2ccccc21 (stereo not shown) [Fluvastatin (sodium)]
Cholesterol-free media + simvastatin (0.04 μM) [1, 9]: 0.3266
Complete Media [1, 10]: 0.199
Difference [1, 20]: −0.13
Difference [2, 11]: −0.22
Cholesterol-free [2, 12]: 0.3896
Complete ([2]; NCI-H292 cells, complete media): 0.168

CCCCCCCCCCCCCCCC(=O)O[C@@H]1[C@@H](O)[C@@H](O)[C@@H]([C@H](NC(=O)[C@@H]2C[C@@H](CCC)CN2C)[C@H](C)Cl)O[C@@H]1SC.Cl [Clindamycin palmitate (hydrochloride)]
Cholesterol-free media + simvastatin (0.04 μM) [1, 9]: 1.093
Complete Media [1, 10]: 0.9482
Difference [1, 20]: −0.14
Cholesterol-free [2, 16]: 0.6777
Complete [2, 17]: 1.478
Difference [2, 18]: 0.80

NCC[C@H](O)C(=O)N[C@@H]1C[C@H](N)[C@@H](O[C@H]2O[C@H](CN)[C@@H](O)[C@H](O)[C@H]2O)[C@H](O)[C@H]1O[C@H]1O[C@H](CO)[C@@H](O)[C@H](N)[C@H]1O [Amikacin (disulfate)]
Cholesterol-free media + simvastatin (0.04 μM) [1, 9]: 0.8392
Complete Media [1, 10]: 1.245
Difference [1, 25]: 0.41
Difference [2, 24]: −0.09
Cholesterol-free [2, 7]: 0.9569
Complete [2, 8]: 0.8685

Nc1ncc2ncn(CC3(OCP(=O)(O)O)CC3)c2n1 [Besifovir]
Cholesterol-free media + simvastatin (0.04 μM) [1, 3]: 0.9124
Complete Media [1, 4]: 0.9846
Difference [1, 5]: 0.07
Cholesterol-free [2, 12]: 1.23
Complete ([2]; NCI-H292 cells, complete media): 0.9121
Difference [2, 19]: −0.32

Vitamin B12
Cholesterol-free media + simvastatin (0.04 μM) ([1]; cholesterol-free media with simvastatin 0.04 μM, […]): 1.198
Complete Media ([1]; complete media, […]): 1.289
Difference [1, 25]: 0.09
Difference [2, 24]: −0.19
Complete ([2]; NCI-H292 cells, complete media): 0.9199

CCN[C@@H]1C[C@H](N)[C@@H](O[C@H]2OC(CN)=CC[C@H]2N)[C@H](O)[C@H]1O[C@H]1OC[C@](C)(O)[C@H](NC)[C@H]1O.CCN[C@@H]1C[C@H](N)[C@@H](O[C@H]2OC(CN)=CC[C@H]2N)[C@H](O)[C@H]1O[C@H]1OC[C@](C)(O)[C@H](NC)[C@H]1O.O=S(=O)(O)O.O=S(=O)(O)O.O=S(=O)(O)O.O=S(=O)(O)O.O=S(=O)(O)O [Netilmicin (sulfate)]
Cholesterol-free media + simvastatin (0.04 μM) [1, 9]: 1.19
Complete Media [1, 10]: 1.538
Difference [1, 5]: 0.35
Cholesterol-free [2, 12]: 1.778
Complete ([2]; NCI-H292 cells, complete media): 1.428
Difference [2, 19]: −0.35

CC1CCCC(C)N1CCCC(O)(c1ccccc1)c1ccccn1 (stereo not shown) [Pirmenol (hydrochloride)]
Cholesterol-free media + simvastatin (0.04 μM) [1, 9]: 1.664
Complete Media [1, 10]: 1.547
Difference [1, 20]: −0.12
Difference [2, 6]: −0.15
Cholesterol-free [2, 7]: 0.8727
Complete [2, 8]: 0.7238

O=c1c(-c2ccc(O)cc2)coc2cc(O)ccc12 [Daidzein]
Cholesterol-free media + simvastatin (0.04 μM) [1, 9]: 1.306
Complete Media [1, 10]: 1.614
Difference [1, 5]: 0.31
Difference [2, 11]: −0.02
Cholesterol-free [2, 16]: 1.1
Complete [2, 17]: 1.082

O=C(O)Cc1cc(I)c(Oc2ccc(O)c(I)c2)c(I)c1 [Tiratricol]
Cholesterol-free media + simvastatin (0.04 μM) [1, 9]: 0.7173
Difference [1, 5]: 0.43
Difference [2, 21]: −0.55
Cholesterol-free [2, 22]: 1.869
Complete [2, 23]: 1.318
